From PubChem BioAssay (NCI)
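Assay format: 96-well plates, 48-hour exposure. TGI: concentration producing complete growth inhibition.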

Tests used:
Experiment in all cases: inhibition of tumour cell growth, NCI panel, 48 h
SW-620 colon = system: SW-620 colon
PC-3 prostate = system: PC-3 prostate
U251 CNS = system: U251 CNS
SK-MEL-28 melanoma = system: SK-MEL-28 melanoma
MDA-MB-231 breast = system: MDA-MB-231 breast
A549 NSCLC = system: A549 NSCLC
HT29 colon = system: HT29 colon
COLO 205 colon = system: COLO 205 colon
SF-295 CNS = system: SF-295 CNS
CAKI-1 renal = system: CAKI-1 renal
OVCAR-5 ovarian = system: OVCAR-5 ovarian

Structure (SMILES)	TGI (SW-620 colon)	TGI (PC-3 prostate)	TGI (U251 CNS)	TGI (SK-MEL-28 melanoma)	TGI (MDA-MB-231 breast)	TGI (A549 NSCLC)	TGI (HT29 colon)	TGI (COLO 205 colon)	TGI (SF-295 CNS)	TGI (CAKI-1 renal)	TGI (OVCAR-5 ovarian)
O=C(O)CNC(=O)c1ccc([As](=O)(O)O)cc1	> 100 µM	> 100 µM	> 100 µM	> 100 µM	> 100 µM	> 100 µM	> 100 µM	> 100 µM	> 100 µM	> 100 µM	> 100 µM
O=C1C(Br)=Cc2c(Cl)sc(Cl)c21	12.9 µM	6.83 µM	7.53 µM	41.3 µM	8.91 µM	> 72.9 µM	27.3 µM	23.6 µM	> 66.4 µM	8.99 µM	36 µM
O=C1C(C=NCCc2c[nH]c3ccccc23)C(C(F)(F)F)=NN1c1nc2ccccc2s1 (stereo not drawn)	> 100 µM	97.8 µM	> 100 µM	> 100 µM	> 100 µM	> 100 µM	88 µM	34 µM	66.5 µM	> 100 µM	78.8 µM
CCN(CCCN(CC)C(=O)N[C@@H](Cc1ccccc1)C(=O)NC)C(=O)N[C@@H](Cc1ccccc1)C(=O)NC	> 100 µM	> 100 µM	> 100 µM	> 100 µM	> 100 µM	> 100 µM	> 100 µM	> 100 µM	> 100 µM	> 100 µM	> 100 µM
CSc1c(C(=O)Nc2ccc(C)cc2)c(N)[nH]c(=O)c1C#N	> 100 µM	> 100 µM	> 100 µM	> 100 µM	> 100 µM	> 100 µM	> 100 µM	> 100 µM		> 100 µM	> 100 µM
NCCCC(N)C(=O)O (stereo not drawn)	> 100 µM	> 100 µM	> 100 µM	> 100 µM	> 100 µM	> 100 µM	> 100 µM	> 100 µM	> 100 µM	> 100 µM	> 100 µM
CN(C)c1ccc(/C(Br)=C2\OC(=O)c3ccccc32)cc1	> 100 µM	> 100 µM	> 100 µM	> 100 µM	> 100 µM	> 100 µM	> 100 µM	> 100 µM	> 100 µM	> 100 µM	> 100 µM
Cc1ccc(C2=Nc3c(c(C)nn3-c3ccccc3)N=C(C(=O)O)C2)cc1	> 10 µM	> 10 µM	> 10 µM	> 10 µM	> 10 µM	> 10 µM	> 10 µM	> 10 µM	> 10 µM	> 10 µM	> 10 µM
O=C1NC(=S)NC(=O)C1C(c1ccccc1[N+](=O)[O-])C1C(=O)NC(=S)NC1=O	> 100 µM	> 100 µM	> 100 µM	> 100 µM	> 100 µM	> 100 µM	> 100 µM	> 100 µM	> 100 µM	> 100 µM	> 100 µM
COc1cc2c(cc1OC)C(=O)/C(=C/c1cc(C)c(O)c(C)c1)C2	> 100 µM	> 100 µM	> 100 µM	> 100 µM	> 100 µM	> 100 µM		> 100 µM		> 100 µM	13.5 µM
CC(C)(CO)N1C(=O)c2ccccc2C1(O)c1ccc(Cl)cc1 (stereo not drawn)	> 100 µM	> 100 µM	> 100 µM	> 100 µM	> 100 µM	> 100 µM	> 100 µM	> 100 µM	> 100 µM	> 100 µM	> 100 µM
Cc1cccc(N(CCC#N)S(=O)(=O)c2ccccc2)c1	> 100 µM	> 100 µM	> 100 µM	> 100 µM	> 100 µM	> 100 µM	> 100 µM	> 100 µM		> 100 µM	> 100 µM
Cc1nc2ccc([N+](=O)[O-])cc2c(=O)n1C(=S)Nc1cccc(Cl)c1	53.3 µM	54.1 µM	66.9 µM	40.6 µM	37.1 µM	92 µM	39.6 µM	31.6 µM	53.6 µM	56 µM	> 100 µM
Brc1ccc2c3c1[C@@H]1O[C@@H]1c1cccc(c1-3)[C@@H]1O[C@H]21	46.9 µM	> 71.7 µM	40.2 µM	50.3 µM	65.8 µM	> 92.1 µM	53.3 µM	52.2 µM	46 µM	26.4 µM	34.3 µM
CN(O)C(=O)Cc1ccc(OCc2cccc(Cl)c2)cc1	> 100 µM	> 100 µM	> 100 µM	> 100 µM	> 100 µM	> 100 µM	> 100 µM	> 100 µM	> 100 µM	> 100 µM	> 100 µM
O=C1/C(=C/c2ccc([N+](=O)[O-])cc2)CNC/C1=C\c1ccc([N+](=O)[O-])cc1	1.78 µM	21.7 µM	1.67 µM	5.49 µM	20.2 µM	> 70.7 µM	3.57 µM	28.3 µM	34.1 µM	4.67 µM	> 69.6 µM
CO/N=C1/c2sccc2[C@H](NC(=O)CNC(=O)OC(C)(C)C)[C@@H]1O	> 100 µM	> 100 µM	> 100 µM	> 100 µM	> 100 µM	> 100 µM	> 100 µM	> 100 µM	> 100 µM	> 100 µM	> 100 µM
O=C(O)c1ccc(NS(=O)(=O)Cc2ccccc2)cc1	> 100 µM	> 100 µM	> 100 µM	> 100 µM	> 100 µM	> 100 µM	> 100 µM	> 100 µM	> 100 µM	> 100 µM	> 100 µM
C/C(=N/NC(=S)Nc1cccc(C)c1)c1ccccn1	5.45 µM	7.68 µM	4.89 µM	7.61 µM	2.45 µM	8.51 µM	2.39 µM	1.34 µM	4.89 µM	9.07 µM	2.67 µM
CCOc1ccc(N=C/C=C(\Cl)c2ccc3ccccc3c2)cc1	36.5 µM	36 µM	33.4 µM	31.4 µM	30.9 µM	> 100 µM	33.3 µM	37.7 µM	36 µM	34 µM	36.3 µM
N#Cc1c(OCCF)c2ccccc2n2c1nc1ccccc12	> 100 µM	> 100 µM	> 100 µM	> 100 µM	> 100 µM	> 100 µM	> 100 µM	> 100 µM	> 100 µM	> 100 µM	> 100 µM

Structure (SMILES)	TGI (SW-620 colon)	TGI (PC-3 prostate)	TGI (U251 CNS)	TGI (SK-MEL-28 melanoma)	TGI (MDA-MB-231 breast)	TGI (A549 NSCLC)	TGI (HT29 colon)	TGI (COLO 205 colon)	TGI (SF-295 CNS)	TGI (CAKI-1 renal)	TGI (OVCAR-5 ovarian)
c1ccc2c(c1)CCCN1CCc3ccccc3C21 (stereo not drawn)	> 100 µM	> 100 µM	> 100 µM	> 100 µM	> 100 µM	> 100 µM	> 100 µM	> 100 µM	> 100 µM	> 100 µM	> 100 µM
Nc1ncnc2c1ncn2C(=O)NC12CC3CC(CC(C3)C1)C2	> 100 µM	> 100 µM	> 100 µM	> 100 µM	> 100 µM	> 100 µM	> 100 µM	> 100 µM	> 100 µM	> 100 µM	> 100 µM
CC(C)CCNC(=O)c1ccc(CNC(=O)/C=C/c2ccc(OCc3ccccc3)cc2)cc1	> 100 µM	> 100 µM	> 100 µM	> 100 µM	> 100 µM	> 100 µM	> 100 µM	> 100 µM	> 100 µM	> 100 µM	> 100 µM
CCn1c(=O)c2c3cc(O)ccc3oc2c2ccc(O)cc21	> 100 µM	> 100 µM	> 100 µM	> 100 µM	> 100 µM	86.9 µM	77.5 µM	43.9 µM	> 100 µM	> 100 µM	
Cc1cc(O)cc(O)c1N=Nc1ccc([N+](=O)[O-])cc1	> 100 µM	> 100 µM	53.9 µM	61 µM	47.4 µM	> 100 µM	> 100 µM	> 100 µM	> 100 µM	38.9 µM	85.1 µM
Cc1ccc(C(=O)Nc2ccc(CP(=O)(O)O)cc2)cc1NC(=O)c1cccc(NC(=O)Nc2cccc(C(=O)Nc3cc(C(=O)Nc4ccc(CP(=O)(O)O)cc4)ccc3C)c2)c1	> 100 µM	> 100 µM	> 100 µM	> 100 µM	> 100 µM	> 100 µM	> 100 µM	> 100 µM	> 100 µM	> 100 µM	> 100 µM
CC1CC(C#N)=C2NCCCCN2C1=O (stereo not drawn)	> 100 µM	> 100 µM	> 100 µM	> 100 µM	> 100 µM	> 100 µM	> 100 µM	> 100 µM	> 100 µM	> 100 µM	
N#CSCc1cccc(Nc2cc(=O)[nH]c(=O)[nH]2)c1	> 100 µM	> 100 µM	> 100 µM	> 100 µM	> 100 µM	> 100 µM	> 100 µM	> 100 µM	> 100 µM	> 100 µM	> 100 µM
CC1=C2c3ccccc3N(C(=O)/C=C/C(=O)O)[C@H]2[C@H]2C(=O)OC(=O)[C@H]2C1	> 10 µM	> 10 µM	> 10 µM	> 10 µM	> 10 µM	> 10 µM	> 10 µM	> 10 µM	> 10 µM	> 10 µM	> 10 µM
CCOC(=O)c1c(SCCN2CCCC2)n(-c2ccccc2)c(=S)n(-c2ccccc2)c1=O	7.58 µM	3.14 µM	16.7 µM	7.48 µM	4.4 µM	14.6 µM	11.5 µM	3.53 µM	> 75.7 µM	5.23 µM	> 59.5 µM
CC(=O)OCC1OC(n2c(=S)[nH]c(-c3ccccc3)c(C#N)c2=O)C(OC(C)=O)C(OC(C)=O)C1OC(C)=O (stereo not drawn)	> 100 µM	> 100 µM	> 100 µM	> 100 µM	> 100 µM	> 100 µM	> 100 µM	> 100 µM	> 100 µM	> 100 µM	> 100 µM
O=C(O)Cc1ccc2nc(COC(=O)c3ccccc3)sc2c1	> 100 µM	> 100 µM	> 100 µM	> 100 µM	> 100 µM	> 100 µM		> 100 µM	> 100 µM	> 100 µM	> 100 µM
CCOC(=O)C1C(=O)CC(O)(c2ccccc2)C(C(=O)OCC)C1c1ccc(OC)cc1 (stereo not drawn)	> 74.3 µM	> 96.4 µM	> 76.8 µM	> 100 µM	> 100 µM	> 100 µM	35.9 µM	47.9 µM	17.5 µM	> 100 µM	> 100 µM
COC(=O)C1CC(C=[N+](C)C)=C(SC)N1 (stereo not drawn)	> 100 µM	> 100 µM	> 100 µM	> 100 µM	> 100 µM		> 100 µM	> 100 µM	> 100 µM	> 100 µM	> 100 µM
CC1=CC(=O)N(n2c(C)n[nH]c2=O)C1=O	> 100 µM	> 100 µM	> 100 µM		> 100 µM	> 100 µM	> 100 µM	> 100 µM	> 100 µM	> 100 µM	> 100 µM
O=C(/C=C/c1cccs1)c1ccc(Cl)cc1	92.9 µM	> 100 µM	> 100 µM	> 100 µM	> 100 µM	> 100 µM	> 100 µM	> 100 µM	> 100 µM		> 100 µM
O=c1nc2c(c(-c3cccc(Cl)c3)[nH]1)COC/C2=C\c1cccc(Cl)c1	> 100 µM	> 100 µM	> 100 µM		> 100 µM			> 100 µM	> 100 µM	> 100 µM	> 100 µM
Cc1nc(Cl)c(CBr)c(Cl)n1		3.13 µM	4.1 µM	3.07 µM	3.67 µM	12.4 µM		3.15 µM	22.9 µM	4.01 µM	3.84 µM
O=C1/C(=C/c2ccc(Br)s2)NC(=S)N1CN1CCOCC1	> 100 µM	> 100 µM	> 100 µM	> 100 µM	> 100 µM		> 100 µM	87.9 µM	> 100 µM	66.5 µM	> 100 µM
CCOC(=O)C(=O)N1C(C)=C(C(=O)OCC)CC(C(=O)OCC)=C1C	> 100 µM	> 100 µM		> 100 µM	> 100 µM	> 100 µM		> 100 µM	> 100 µM	> 100 µM	> 100 µM
